#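 Results reflect a 48-hour exposure of cells in 96-well plates to compound at five concentrations. GI50 = concentration required for 50% inhibition of growth. Definition used: TGI = concentration required for complete inhibition of growth.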
# Tests used:
# Assay in all cases: NCI tumour cell line growth inhibition, 48 h
# 786-0 renal = test system: 786-0 renal
# A498 renal = test system: A498 renal
# A549 NSCLC = test system: A549 NSCLC
# ACHN renal = test system: ACHN renal
# BT-549 breast = test system: BT-549 breast
# CAKI-1 renal = test system: CAKI-1 renal
# CCRF-CEM leukemia = test system: CCRF-CEM leukemia
# COLO 205 colon = test system: COLO 205 colon
# DU-145 prostate = test system: DU-145 prostate
# EKVX NSCLC = test system: EKVX NSCLC
# HCC-2998 colon = test system: HCC-2998 colon
# HCT-116 colon = test system: HCT-116 colon
# HCT-15 colon = test system: HCT-15 colon
# HL-60(TB) leukemia = test system: HL-60(TB) leukemia
# HOP-62 NSCLC = test system: HOP-62 NSCLC
# HOP-92 NSCLC = test system: HOP-92 NSCLC
# HS 578T breast = test system: HS 578T breast
# HT29 colon = test system: HT29 colon
# IGROV1 ovarian = test system: IGROV1 ovarian
# K-562 leukemia = test system: K-562 leukemia
# KM12 colon = test system: KM12 colon
# LOX IMVI melanoma = test system: LOX IMVI melanoma
# M14 melanoma = test system: M14 melanoma
# MALME-3M melanoma = test system: MALME-3M melanoma
# MCF7 breast = test system: MCF7 breast
# MDA-MB-231 breast = test system: MDA-MB-231 breast
# MDA-MB-435 = test system: MDA-MB-435
# MOLT-4 leukemia = test system: MOLT-4 leukemia
# NCI-H226 lung = test system: NCI-H226 lung
# NCI-H23 lung = test system: NCI-H23 lung
# NCI-H460 lung = test system: NCI-H460 lung
# NCI-H522 lung = test system: NCI-H522 lung
# NCI/ADR-RES ovarian = test system: NCI/ADR-RES ovarian
# OVCAR-3 ovarian = test system: OVCAR-3 ovarian
# OVCAR-4 ovarian = test system: OVCAR-4 ovarian
# OVCAR-5 ovarian = test system: OVCAR-5 ovarian
# OVCAR-8 ovarian = test system: OVCAR-8 ovarian
# PC-3 prostate = test system: PC-3 prostate
# RPMI-8226 leukemia = test system: RPMI-8226 leukemia
# RXF 393 renal = test system: RXF 393 renal
# SF-268 CNS = test system: SF-268 CNS
# SF-295 CNS = test system: SF-295 CNS
# SF-539 CNS = test system: SF-539 CNS
# SK-MEL-2 melanoma = test system: SK-MEL-2 melanoma
# SK-MEL-28 melanoma = test system: SK-MEL-28 melanoma
# SK-MEL-5 melanoma = test system: SK-MEL-5 melanoma
# SK-OV-3 ovarian = test system: SK-OV-3 ovarian
# SN12C renal = test system: SN12C renal
# SNB-19 CNS = test system: SNB-19 CNS
# SNB-75 CNS = test system: SNB-75 CNS
# SR leukemia = test system: SR leukemia
# SW-620 colon = test system: SW-620 colon
# T-47D breast = test system: T-47D breast
# TK-10 renal = test system: TK-10 renal
# U251 CNS = test system: U251 CNS
# UACC-257 melanoma = test system: UACC-257 melanoma
# UACC-62 melanoma = test system: UACC-62 melanoma
# UO-31 renal = test system: UO-31 renal
structure (smiles),measurement,setting,value
CCN(CC)CC(O)CNc1c2ccc(Cl)cc2nc2ccc(OC)cc12 (stereo unspecified),GI50,786-0 renal,549 nM
same,TGI,786-0 renal,2050 nM
same,GI50,A498 renal,1430 nM
same,TGI,A498 renal,2890 nM
same,GI50,A549 NSCLC,472 nM
same,TGI,A549 NSCLC,2030 nM
same,GI50,ACHN renal,935 nM
same,TGI,ACHN renal,3790 nM
same,GI50,BT-549 breast,1630 nM
same,TGI,BT-549 breast,3050 nM
same,GI50,CAKI-1 renal,656 nM
same,TGI,CAKI-1 renal,2330 nM
same,GI50,CCRF-CEM leukemia,673 nM
same,TGI,CCRF-CEM leukemia,6880 nM
same,GI50,COLO 205 colon,528 nM
same,TGI,COLO 205 colon,1680 nM
same,GI50,DU-145 prostate,710 nM
same,TGI,DU-145 prostate,2210 nM
same,GI50,EKVX NSCLC,407 nM
same,TGI,EKVX NSCLC,2080 nM
same,GI50,HCC-2998 colon,549 nM
same,TGI,HCC-2998 colon,1770 nM
same,GI50,HCT-116 colon,367 nM
same,TGI,HCT-116 colon,1410 nM
same,GI50,HCT-15 colon,679 nM
same,TGI,HCT-15 colon,6430 nM
same,GI50,HL-60(TB) leukemia,960 nM
same,TGI,HL-60(TB) leukemia,3320 nM
same,GI50,HOP-62 NSCLC,1010 nM
same,TGI,HOP-62 NSCLC,2730 nM
same,GI50,HOP-92 NSCLC,1300 nM
same,TGI,HOP-92 NSCLC,3840 nM
same,GI50,HS 578T breast,1240 nM
same,TGI,HS 578T breast,3470 nM
same,GI50,HT29 colon,356 nM
same,TGI,HT29 colon,1480 nM
same,GI50,IGROV1 ovarian,716 nM
same,TGI,IGROV1 ovarian,3120 nM
same,GI50,K-562 leukemia,312 nM
same,TGI,K-562 leukemia,979 nM
same,GI50,KM12 colon,512 nM
same,TGI,KM12 colon,1860 nM
same,GI50,LOX IMVI melanoma,589 nM
same,TGI,LOX IMVI melanoma,1790 nM
same,GI50,M14 melanoma,1350 nM
same,TGI,M14 melanoma,2660 nM
same,GI50,MALME-3M melanoma,1630 nM
same,TGI,MALME-3M melanoma,3350 nM
same,GI50,MCF7 breast,621 nM
same,TGI,MCF7 breast,4400 nM
same,GI50,MDA-MB-231 breast,972 nM
same,TGI,MDA-MB-231 breast,3060 nM
same,GI50,MDA-MB-435,923 nM
same,TGI,MDA-MB-435,2250 nM
same,GI50,MOLT-4 leukemia,369 nM
same,TGI,MOLT-4 leukemia,1580 nM
same,GI50,NCI-H226 lung,886 nM
same,TGI,NCI-H226 lung,3010 nM
same,GI50,NCI-H23 lung,852 nM
same,TGI,NCI-H23 lung,2530 nM
same,GI50,NCI-H460 lung,327 nM
same,TGI,NCI-H460 lung,975 nM
same,GI50,NCI-H522 lung,518 nM
same,TGI,NCI-H522 lung,1840 nM
same,GI50,NCI/ADR-RES ovarian,933 nM
same,TGI,NCI/ADR-RES ovarian,3310 nM
same,GI50,OVCAR-3 ovarian,1710 nM
same,TGI,OVCAR-3 ovarian,4260 nM
same,GI50,OVCAR-4 ovarian,704 nM
same,TGI,OVCAR-4 ovarian,2250 nM
same,GI50,OVCAR-5 ovarian,1660 nM
same,TGI,OVCAR-5 ovarian,5180 nM
same,GI50,OVCAR-8 ovarian,521 nM
same,TGI,OVCAR-8 ovarian,2250 nM
same,GI50,PC-3 prostate,355 nM
same,TGI,PC-3 prostate,1620 nM
same,GI50,RPMI-8226 leukemia,510 nM
same,TGI,RPMI-8226 leukemia,1870 nM
same,GI50,RXF 393 renal,657 nM
same,TGI,RXF 393 renal,1840 nM
same,GI50,SF-268 CNS,890 nM
same,TGI,SF-268 CNS,2970 nM
same,GI50,SF-295 CNS,649 nM
same,TGI,SF-295 CNS,2110 nM
same,GI50,SF-539 CNS,1430 nM
same,TGI,SF-539 CNS,3050 nM
same,GI50,SK-MEL-2 melanoma,1270 nM
same,TGI,SK-MEL-2 melanoma,2850 nM
same,GI50,SK-MEL-28 melanoma,1720 nM
same,TGI,SK-MEL-28 melanoma,3100 nM
same,GI50,SK-MEL-5 melanoma,1580 nM
same,TGI,SK-MEL-5 melanoma,2920 nM
same,GI50,SK-OV-3 ovarian,1020 nM
same,TGI,SK-OV-3 ovarian,3640 nM
same,GI50,SN12C renal,540 nM
same,TGI,SN12C renal,2680 nM
same,GI50,SNB-19 CNS,632 nM
same,TGI,SNB-19 CNS,2700 nM
same,GI50,SNB-75 CNS,970 nM
same,TGI,SNB-75 CNS,2380 nM
same,GI50,SR leukemia,338 nM
same,TGI,SR leukemia,1070 nM
same,GI50,SW-620 colon,393 nM
same,TGI,SW-620 colon,1650 nM
same,GI50,T-47D breast,1180 nM
same,TGI,T-47D breast,2930 nM
same,GI50,TK-10 renal,837 nM
same,TGI,TK-10 renal,3180 nM
same,GI50,U251 CNS,574 nM
same,TGI,U251 CNS,2320 nM
same,GI50,UACC-257 melanoma,1750 nM
same,TGI,UACC-257 melanoma,3270 nM
same,GI50,UACC-62 melanoma,1780 nM
same,TGI,UACC-62 melanoma,3310 nM
same,GI50,UO-31 renal,929 nM
same,TGI,UO-31 renal,3410 nM

# From PubChem BioAssay (NCI)
